Article PMC6501426 (Clinical Epigenetics, 2019)

Legend:
[1] = test system: E-cadherin protein in PC-3 cells; experiment: Western blot of E-cadherin in PC-3; format: cell-based, human; conditions: 1 μM, 24 h
Description: Cells were lysed in Laemmli buffer; subsequently, the proteins were resolved by sodium dodecyl sulfate-polyacrylamide gel electrophoresis and transferred to a 0.45-μm nitrocellulose membrane (Bio-Rad Laboratories, Hercules, CA). The following primary antibodies were used for immunoblotting: α-E-cadherin (BD Transduction Laboratories, Franklin Lakes, NJ), α-MMP2 (Abcam), α-DNMT3a (Santa Cruz Biotechnologies, Dallas, TX), and α-GAPDH (Millipore Corp., Bedford, MA), used as a loading control. The immune complexes were detected with horseradish peroxidase-conjugated species-specific secondary antiserum (Bio-Rad Laboratories, Milan, Italy) then by enhanced chemiluminescence reaction (Bio-Rad Laboratories, Milan, Italy). Densitometric analysis of protein expression was performed by using the Fiji ImageJ image processing package.
Fig. 8 Effects of MC3353 on E-cadherin and MMP2 protein expression levels in PC-3 cancer cells. Cells were treated with vehicle (DMSO) used as control (CTR) or MC3353 for 24 h. a E-cadherin and MMP2 protein detection by western blot. GAPDH was used as a loading control. Blots are representative of three independent experiments. b Densitometric analysis of E-cadherin and MMP2 protein expression. Significance is represented as *p < 0.05 related to the control groups. Data were obtained from three independent experiments and expressed as mean ± SEM

SIK (h) = target: T1, SIK (h) (Homo sapiens, UniProt P57059); experiment: Kinase panel (Cerep); format: biochemical; conditions: read-out: % inhibition at 10 µM by MC3353, SIK (h), ATP 30 μM
T1 construct: purchased Eurofins Cerep
Experimental: (§1) The test compound, reference compound or water (control) were mixed with the enzyme (for the exact amount see table below) in the appropriate buffer. Thereafter, the reaction was initiated by adding the required amount of the appropriate substrate and of ATP, and the mixture is incubated at room temperature (variable reaction time, see table below). For control basal measurements, the enzyme was omitted from the reaction mixture. Following incubation, the reaction was stopped by adding 13 mM EDTA. After 5 min, the proper antibody labelled with europium chelate was added. After 60 more min, the fluorescence transfer was measured at λex=337 nm, λem=620 nm and λem=665 nm using a microplate reader (Envision, Perkin Elmer). The enzyme activity was determined by dividing the signal measured at 665 nm by that measured at 620 nm (ratio). The results are expressed as a percent inhibition of the control enzyme activity.

IKKalpha (h) = target: T2, IKKalpha (h) (Homo sapiens, UniProt O15111); experiment: Kinase panel (Cerep); format: biochemical; conditions: read-out: % inhibition at 10 µM by MC3353, IKKalpha (h), ATP 5 μM
T2 construct: purchased Eurofins Cerep
T2 sequence (O15111 whole entry): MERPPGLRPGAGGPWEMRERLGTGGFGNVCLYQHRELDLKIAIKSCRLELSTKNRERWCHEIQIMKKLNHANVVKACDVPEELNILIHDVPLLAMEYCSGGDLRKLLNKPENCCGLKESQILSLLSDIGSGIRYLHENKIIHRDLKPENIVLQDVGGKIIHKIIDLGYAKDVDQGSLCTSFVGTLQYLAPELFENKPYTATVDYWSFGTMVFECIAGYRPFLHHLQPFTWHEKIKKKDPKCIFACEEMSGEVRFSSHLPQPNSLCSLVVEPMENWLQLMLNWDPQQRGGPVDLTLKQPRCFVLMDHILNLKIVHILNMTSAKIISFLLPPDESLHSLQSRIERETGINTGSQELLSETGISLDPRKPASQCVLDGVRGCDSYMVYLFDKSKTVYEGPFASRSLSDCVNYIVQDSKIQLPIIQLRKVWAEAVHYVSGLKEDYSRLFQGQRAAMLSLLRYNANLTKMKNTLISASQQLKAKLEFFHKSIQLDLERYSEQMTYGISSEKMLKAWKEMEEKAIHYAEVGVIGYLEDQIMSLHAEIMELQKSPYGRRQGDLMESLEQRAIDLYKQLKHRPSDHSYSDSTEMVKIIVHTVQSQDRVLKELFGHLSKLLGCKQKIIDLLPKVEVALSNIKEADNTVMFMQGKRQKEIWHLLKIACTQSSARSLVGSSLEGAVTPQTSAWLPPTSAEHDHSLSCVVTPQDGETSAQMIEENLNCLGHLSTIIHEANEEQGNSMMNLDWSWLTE
Experimental: as §1

JNK1 (h) = target: T3, JNK1 (h) (Homo sapiens, UniProt P45983); experiment: Kinase panel (Cerep); format: biochemical; conditions: read-out: % inhibition at 10 µM by MC3353, JNK1 (h), ATP 10 μM
T3 construct: purchased Eurofins Cerep
Experimental: as §1

CHK1 (h) = target: T4, CHK1 (h) (Homo sapiens, UniProt O14757); experiment: Kinase panel (Cerep); format: biochemical; conditions: read-out: % inhibition at 10 µM by MC3353, CHK1 (h), ATP 30 μM
T4 construct: purchased Eurofins Cerep
T4 sequence (O14757 whole entry): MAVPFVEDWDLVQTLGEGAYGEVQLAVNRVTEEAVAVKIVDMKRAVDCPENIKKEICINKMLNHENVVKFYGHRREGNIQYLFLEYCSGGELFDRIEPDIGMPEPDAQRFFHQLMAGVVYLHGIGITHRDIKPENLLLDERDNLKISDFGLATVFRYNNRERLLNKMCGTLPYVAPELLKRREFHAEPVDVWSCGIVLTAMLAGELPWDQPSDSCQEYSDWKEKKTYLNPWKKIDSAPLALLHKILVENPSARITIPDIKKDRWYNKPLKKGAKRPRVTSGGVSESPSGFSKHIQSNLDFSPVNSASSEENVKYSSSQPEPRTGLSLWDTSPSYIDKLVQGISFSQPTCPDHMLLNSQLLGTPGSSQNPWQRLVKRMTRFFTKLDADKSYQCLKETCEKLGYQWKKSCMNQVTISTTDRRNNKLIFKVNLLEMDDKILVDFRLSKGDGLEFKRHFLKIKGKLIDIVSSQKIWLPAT
Experimental: as §1

Src kinase (h) = target: T5, Src kinase (h) (Homo sapiens, UniProt P12931); experiment: Kinase panel (Cerep); format: biochemical; conditions: read-out: % inhibition at 10 µM by MC3353, Src kinase (h), ATP 5 μM
T5 construct: purchased Eurofins Cerep
T5 sequence (P12931 whole entry): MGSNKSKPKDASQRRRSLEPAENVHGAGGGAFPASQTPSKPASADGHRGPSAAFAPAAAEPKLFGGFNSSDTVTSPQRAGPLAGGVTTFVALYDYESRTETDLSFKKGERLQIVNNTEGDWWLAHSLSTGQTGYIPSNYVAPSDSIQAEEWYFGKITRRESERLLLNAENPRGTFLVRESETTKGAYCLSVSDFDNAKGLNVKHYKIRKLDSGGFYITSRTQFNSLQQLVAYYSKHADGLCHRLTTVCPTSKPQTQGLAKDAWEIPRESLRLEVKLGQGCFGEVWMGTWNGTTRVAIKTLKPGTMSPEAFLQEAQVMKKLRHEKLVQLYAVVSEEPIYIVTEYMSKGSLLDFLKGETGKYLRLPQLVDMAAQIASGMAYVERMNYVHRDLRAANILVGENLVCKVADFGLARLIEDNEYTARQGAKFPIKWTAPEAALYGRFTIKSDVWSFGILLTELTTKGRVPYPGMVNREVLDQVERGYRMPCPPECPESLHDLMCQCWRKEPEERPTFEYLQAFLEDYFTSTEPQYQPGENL
Experimental: as §1

PAK4 (h) = target: T6, PAK4 (h) (Homo sapiens, UniProt O96013); experiment: Kinase panel (Cerep); format: biochemical; conditions: read-out: % inhibition at 10 µM by MC3353, PAK4 (h), ATP 1 μM
T6 construct: purchased Eurofins Cerep
T6 sequence (O96013 whole entry): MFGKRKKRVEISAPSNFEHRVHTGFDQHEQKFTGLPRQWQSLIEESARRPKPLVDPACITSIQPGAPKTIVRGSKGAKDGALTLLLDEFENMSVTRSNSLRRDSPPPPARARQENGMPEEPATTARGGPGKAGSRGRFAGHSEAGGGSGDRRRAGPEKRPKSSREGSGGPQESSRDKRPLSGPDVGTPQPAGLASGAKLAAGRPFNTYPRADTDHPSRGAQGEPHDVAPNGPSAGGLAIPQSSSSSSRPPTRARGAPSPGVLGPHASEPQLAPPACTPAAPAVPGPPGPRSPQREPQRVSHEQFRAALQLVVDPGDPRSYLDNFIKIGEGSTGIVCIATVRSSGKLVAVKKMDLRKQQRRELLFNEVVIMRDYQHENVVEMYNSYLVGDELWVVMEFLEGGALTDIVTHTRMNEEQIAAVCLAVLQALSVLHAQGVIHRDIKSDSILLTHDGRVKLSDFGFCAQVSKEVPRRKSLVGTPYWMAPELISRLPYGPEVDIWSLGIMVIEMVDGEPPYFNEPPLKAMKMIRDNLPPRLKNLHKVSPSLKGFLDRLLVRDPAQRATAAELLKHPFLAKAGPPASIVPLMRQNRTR
Experimental: as §1

PAK2 (h) = target: T7, PAK2 (h) (Homo sapiens, UniProt Q13177); experiment: Kinase panel (Cerep); format: biochemical; conditions: read-out: % inhibition at 10 µM by MC3353, PAK2 (h), ATP 50 μM
T7 construct: purchased Eurofins Cerep
T7 sequence (Q13177 whole entry): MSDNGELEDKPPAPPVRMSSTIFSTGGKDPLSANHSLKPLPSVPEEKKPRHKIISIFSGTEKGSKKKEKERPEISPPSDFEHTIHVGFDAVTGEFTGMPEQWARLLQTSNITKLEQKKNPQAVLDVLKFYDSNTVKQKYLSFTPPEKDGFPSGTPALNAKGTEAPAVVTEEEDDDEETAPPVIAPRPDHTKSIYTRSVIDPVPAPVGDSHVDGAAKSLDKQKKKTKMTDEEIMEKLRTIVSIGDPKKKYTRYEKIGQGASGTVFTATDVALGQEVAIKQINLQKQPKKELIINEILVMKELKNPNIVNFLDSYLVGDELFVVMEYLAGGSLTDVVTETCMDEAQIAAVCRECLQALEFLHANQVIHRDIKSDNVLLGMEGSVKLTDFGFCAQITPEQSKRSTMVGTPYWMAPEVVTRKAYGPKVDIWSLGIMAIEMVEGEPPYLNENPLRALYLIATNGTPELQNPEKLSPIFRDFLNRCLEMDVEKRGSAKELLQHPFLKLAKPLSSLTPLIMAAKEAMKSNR
Experimental: as §1

FGFR1 kinase (h) = target: T8, FGFR1 kinase (h) (Homo sapiens, UniProt P11362); experiment: Kinase panel (Cerep); format: biochemical; conditions: read-out: % inhibition at 10 µM by MC3353, FGFR1 kinase (h), ATP 100 μM
T8 construct: purchased Eurofins Cerep
Experimental: as §1

CaMK2alpha (h) = target: T9, CaMK2alpha (h) (Homo sapiens, UniProt Q9UQM7); experiment: Kinase panel (Cerep); format: biochemical; conditions: read-out: % inhibition at 10 µM by MC3353, CaMK2alpha (h), ATP 10 μM
T9 construct: purchased Eurofins Cerep
T9 sequence (Q9UQM7 whole entry): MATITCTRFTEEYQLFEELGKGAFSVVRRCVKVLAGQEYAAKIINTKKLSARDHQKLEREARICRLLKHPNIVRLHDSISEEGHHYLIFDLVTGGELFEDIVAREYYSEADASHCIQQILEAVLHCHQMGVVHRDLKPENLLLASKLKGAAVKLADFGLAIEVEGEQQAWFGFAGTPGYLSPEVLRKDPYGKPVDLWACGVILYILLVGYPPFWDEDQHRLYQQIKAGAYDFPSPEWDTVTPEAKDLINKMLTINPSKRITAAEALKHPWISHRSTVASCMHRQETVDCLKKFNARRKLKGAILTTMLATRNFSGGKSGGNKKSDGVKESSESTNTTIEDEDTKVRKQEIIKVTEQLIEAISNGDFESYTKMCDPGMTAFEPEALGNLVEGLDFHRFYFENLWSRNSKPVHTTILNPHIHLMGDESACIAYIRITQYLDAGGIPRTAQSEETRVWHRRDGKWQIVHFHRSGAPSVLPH
Experimental: as §1

RAF-1 kinase (h) = target: T10, RAF-1 kinase (h) (Homo sapiens, UniProt P04049); experiment: Kinase panel (Cerep); format: biochemical; conditions: read-out: % inhibition at 10 µM by MC3353, RAF-1 kinase (h), ATP 10 μM
T10 construct: purchased Eurofins Cerep
T10 sequence (P04049 whole entry): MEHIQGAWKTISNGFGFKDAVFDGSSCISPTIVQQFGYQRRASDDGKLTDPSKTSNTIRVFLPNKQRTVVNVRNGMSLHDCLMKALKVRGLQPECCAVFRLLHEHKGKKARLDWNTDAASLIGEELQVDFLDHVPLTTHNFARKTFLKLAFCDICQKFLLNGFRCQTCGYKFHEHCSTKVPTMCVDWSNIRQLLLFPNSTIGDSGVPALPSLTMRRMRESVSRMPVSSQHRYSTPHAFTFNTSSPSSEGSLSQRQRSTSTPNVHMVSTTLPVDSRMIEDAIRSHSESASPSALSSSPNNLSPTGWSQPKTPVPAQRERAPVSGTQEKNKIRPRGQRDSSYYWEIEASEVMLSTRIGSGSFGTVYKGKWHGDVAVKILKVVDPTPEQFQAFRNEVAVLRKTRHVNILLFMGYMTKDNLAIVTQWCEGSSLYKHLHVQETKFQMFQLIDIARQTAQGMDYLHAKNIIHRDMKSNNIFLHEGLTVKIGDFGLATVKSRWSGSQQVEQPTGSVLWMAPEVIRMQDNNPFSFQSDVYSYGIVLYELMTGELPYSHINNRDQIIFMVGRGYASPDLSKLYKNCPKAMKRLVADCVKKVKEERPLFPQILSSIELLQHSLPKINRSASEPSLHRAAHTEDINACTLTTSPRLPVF
Experimental: as §1

Lck kinase (h) = target: T11, Lck kinase (h) (Homo sapiens, UniProt P06239); experiment: Kinase panel (Cerep); format: biochemical; conditions: read-out: % inhibition at 10 µM by MC3353, Lck kinase (h), ATP 10 μM
T11 construct: purchased Eurofins Cerep
T11 sequence (P06239 whole entry): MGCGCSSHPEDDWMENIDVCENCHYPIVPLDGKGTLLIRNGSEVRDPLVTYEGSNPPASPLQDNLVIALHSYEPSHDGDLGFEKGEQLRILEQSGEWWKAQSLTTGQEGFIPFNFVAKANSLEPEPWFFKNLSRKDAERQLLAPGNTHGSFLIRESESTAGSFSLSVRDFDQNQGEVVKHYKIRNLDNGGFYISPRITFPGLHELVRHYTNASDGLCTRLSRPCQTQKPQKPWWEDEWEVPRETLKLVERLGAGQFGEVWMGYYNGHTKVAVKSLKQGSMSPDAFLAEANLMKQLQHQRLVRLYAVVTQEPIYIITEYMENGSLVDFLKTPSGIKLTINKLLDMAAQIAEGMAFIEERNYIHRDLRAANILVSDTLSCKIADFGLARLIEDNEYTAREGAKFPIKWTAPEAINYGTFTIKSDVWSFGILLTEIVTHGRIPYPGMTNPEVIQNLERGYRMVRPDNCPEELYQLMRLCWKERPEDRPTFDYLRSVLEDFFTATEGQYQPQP
Experimental: as §1

TRKA (h) = target: T12, TRKA (h) (Homo sapiens, UniProt P04629); experiment: Kinase panel (Cerep); format: biochemical; conditions: read-out: % inhibition at 10 µM by MC3353, TRKA (h), ATP 100 μM
T12 construct: purchased Eurofins Cerep
Experimental: as §1

Pim2 kinase (h) = target: T13, Pim2 kinase (h) (Homo sapiens, UniProt Q9P1W9); experiment: Kinase panel (Cerep); format: biochemical; conditions: read-out: % inhibition at 10 µM by MC3353, Pim2 kinase (h), ATP 3 μM
T13 construct: purchased Eurofins Cerep
Experimental: as §1

p38alpha kinase (h) = target: T14, p38alpha kinase (h) (Homo sapiens, UniProt Q16539); experiment: Kinase panel (Cerep); format: biochemical; conditions: read-out: % inhibition at 10 µM by MC3353, p38alpha kinase (h), ATP 100 μM
T14 construct: purchased Eurofins Cerep
T14 sequence (Q16539 whole entry): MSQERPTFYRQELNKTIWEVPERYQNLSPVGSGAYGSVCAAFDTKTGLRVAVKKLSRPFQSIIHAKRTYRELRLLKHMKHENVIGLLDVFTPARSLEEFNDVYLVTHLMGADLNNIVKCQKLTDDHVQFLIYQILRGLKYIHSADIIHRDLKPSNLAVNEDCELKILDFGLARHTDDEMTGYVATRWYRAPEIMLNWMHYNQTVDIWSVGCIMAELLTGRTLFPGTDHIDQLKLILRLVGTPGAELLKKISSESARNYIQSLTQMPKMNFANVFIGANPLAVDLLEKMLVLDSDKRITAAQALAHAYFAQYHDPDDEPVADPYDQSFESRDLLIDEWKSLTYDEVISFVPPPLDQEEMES
Experimental: as §1

U-937 cells = experiment: Nuclear morphology analysis (Hoechst/PI); format: cell-based, human; conditions: 72 h; considerable increase between 0.5 and 1 μM
Experimental: (§2) Proliferation and viability of U-937, KG-1, RAJI, PC-3, MDA-MB-231, RPMI1788, PBMCs, and PHA_PBMCs were assessed by trypan blue exclusion assays at the indicated time points. Nuclear morphology changes associated with apoptosis and necrosis were evaluated by fluorescence microscopy after Hoechst and propidium iodide (PI) staining as previously described.
(§3) Fig. 6 Nuclear morphology analysis in U-937, RAJI, KG-1, and RPMI1788 cells. Cells were treated with increasing doses of MC3353. Upper panels—after 72 h of treatment, the nuclear morphology was analyzed by fluorescence microscopy after Hoechst and PI staining. Pictures are representative of three independent experiments. Lower panels—the results of cell counting are represented as the mean (± SD) of three independent experiments

RAJI cells = experiment: Nuclear morphology analysis (Hoechst/PI); format: cell-based, human; conditions: 72 h; drastic increase in cell death rate between 0.5 and 1 μM
Experimental: as §2, §3

KG-1 cells = experiment: Nuclear morphology analysis (Hoechst/PI); format: cell-based, human; conditions: 72 h; considerable increase between 0.5 and 1 μM
Experimental: as §2, §3

In the case of `O=C(Nc1ccc(NC(=O)c2ccc(Nc3ccnc4ccccc34)cc2)cc1)OCc1ccccc1` [MC3353, Benzyl (4-(4-(quinolin-4-ylamino)benzamido)phenyl)carbamate], the “E-cadherin protein expression (western blot, densitometry), PC-3” value [1] is reported as “significantly induced E-cadherin expression”, the inhibition at 10 µM (SIK (h)) is reported as 33% and the inhibition at 10 µM (IKKalpha (h)) is reported as 18%. It also gave an inhibition at 10 µM (JNK1 (h)) of -32%, an inhibition at 10 µM (CHK1 (h)) of 7% and an inhibition at 10 µM (Src kinase (h)) of 57%. For the same compound, the inhibition at 10 µM (PAK4 (h)) was -4%, the inhibition at 10 µM (PAK2 (h)) was -135% and the inhibition at 10 µM (FGFR1 kinase (h)) was -200%. It also gave an inhibition at 10 µM (CaMK2alpha (h)) of -22%, an inhibition at 10 µM (RAF-1 kinase (h)) of 60% and an inhibition at 10 µM (Lck kinase (h)) of 4%. The inhibition at 10 µM (TRKA (h)) was 67%, the inhibition at 10 µM (Pim2 kinase (h)) was 20% and the inhibition at 10 µM (p38alpha kinase (h)) was -58%. For the same compound, the “cell death modality, U-937” value (U-937 cells) was “induced mainly apoptosis”, the “cell death modality, RAJI” value (RAJI cells) was “shift from apoptosis to necrosis” and the “cell death modality, KG-1” value (KG-1 cells) was “induced mainly apoptosis”.
